Reference: patent US7897602B2, “Indolinone compounds as kinase inhibitors” (Development Center for Biotechnology, priority 2009, dated 2011)

Columns and labels:
Assay type in all cases: biochemical
Aurora A kinase = target: T1, Aurora A kinase (Homo sapiens, UniProt O14965); experiment: Aurora A kinase assay ([γ-33P]ATP, CHOCKtide substrate); conditions: for inhibition at 1 µM: 1.0 μM test compound
T1 construct: purchased Upstate
T1 sequence (O14965 1-403): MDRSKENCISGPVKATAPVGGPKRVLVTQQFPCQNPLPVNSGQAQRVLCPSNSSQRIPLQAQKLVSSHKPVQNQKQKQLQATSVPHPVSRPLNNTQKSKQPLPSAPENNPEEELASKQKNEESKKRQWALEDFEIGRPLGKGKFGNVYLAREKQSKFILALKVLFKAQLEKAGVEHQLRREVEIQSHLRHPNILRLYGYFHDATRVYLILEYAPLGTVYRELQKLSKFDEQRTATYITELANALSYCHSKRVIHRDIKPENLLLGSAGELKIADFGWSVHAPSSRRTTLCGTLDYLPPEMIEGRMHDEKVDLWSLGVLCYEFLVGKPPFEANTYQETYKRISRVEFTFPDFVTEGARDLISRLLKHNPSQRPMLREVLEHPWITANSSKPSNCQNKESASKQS
Procedure: (§1) Inhibition of Aurora Kinase by the compounds disclosed herein was determined by incubating Aurora kinase, substrate, and a test compound together for a period of time followed by quantifying the resultant phosphorylated product. Specifically, in a well of a 96-well round bottom plate, 25 μL of a reaction mixture containing (1) a test compound disclosed herein (diluted from 9 μM to the desired final concentration), [γ-33P]ATP/ATP mix (10 μM), CHOCKtide (1 μg, Genesis Biotech Inc.), and Aurora-A (1 ng, purchased from Upstate); or (2) a test compound disclosed herein (diluted from 9 μM to the desired final concentration), [γ-33P]ATP/ATP mix (40 μM), CHOCKtide (1 μg, Genesis Biotech Inc.), and Aurora-B (2.5 ng, purchased from Cell signaling); was prepared and incubated at 33° C. for 30 minutes. The reaction was then stopped by adding 5 μL of 3% phosphoric acid. The resultant solution (30 μL) was later harvested by a UniFilter Plate GF/B (PerkinElmer) followed by adding 30 μL of the scintillation cocktail (MicroScint 20, PerkinElmer) to the well. The radioactivity retained on the filter membrane was measured by a luminescence counter (PerkinElmer). IC50 value is defined as the concentration of the test compound which achieves a half-maximal inhibition of the kinase activity.

c-Met kinase = target: T2, c-Met kinase (Homo sapiens, UniProt P08581); experiment: c-Met kinase assay (33P incorporation into Poly(Glu-Tyr)); conditions: 500 nM test compound
T2 construct: recombinant N-terminal 6×His-tagged c-Met kinase domain construct expressed from baculovirus; 6xHis (N); made in house
Procedure: Inhibition of c-Met kinase activity by compounds disclosed herein was quantified by measuring the amount of [^33P] incorporated into the substrate in the presence of a test compound. Briefly, a reaction mixture of 25 μL final volume containing 5 ng of c-Met kinase (obtained by purifying recombinant N-terminal 6×His-tagged c-Met kinase domain construct expressed from baculovirus), 1 μg of the substrate (Poly (Glu-Tyr, 4:1, Sigma)), kinase reaction buffer (20 mM MOPS pH 7.0, 1 mM EDTA, 5% glycerol, 0.01% Brij-35, 0.1% β-mercaptoethanol, 1 mg/mL BSA, 100 μM ATP, 0.1 μCi per well [^33P]-γ-ATP (2,500-3,000 Ci/mmol)), and a test compound (500 nM, diluted with 4% DMSO) or DMSO (as the control) was incubated at 30° C. for 30 minutes. The reaction was stopped by adding 5 μL of 3% phosphoric acid solution. The resultant reaction solution was then harvested onto a filter plate (UniFilter-96 GF/B, PerkinElmer), washed 20 times for 5 min with d.d. H2O, and followed by the addition of 30 μL of MicroScint™-20 Cocktail (PerkinElmer). The plate was then sealed and counted using a TopCount scintillation detector (PerkinElmer). The percentage of inhibition rate of the test compound was calculated by dividing the retained radioactivity of the test sample with the retained radioactivity of the control sample and shown in Table 3.

Aurora B kinase = target: T3, Aurora B kinase (Homo sapiens, UniProt Q96GD4); experiment: Aurora B kinase assay ([γ-33P]ATP, CHOCKtide substrate); conditions: for inhibition at 1 µM: 1.0 μM test compound
T3 construct: purchased Cell signaling
Procedure: as §1

T2 sequence (P08581 1078-1345 limits assumed): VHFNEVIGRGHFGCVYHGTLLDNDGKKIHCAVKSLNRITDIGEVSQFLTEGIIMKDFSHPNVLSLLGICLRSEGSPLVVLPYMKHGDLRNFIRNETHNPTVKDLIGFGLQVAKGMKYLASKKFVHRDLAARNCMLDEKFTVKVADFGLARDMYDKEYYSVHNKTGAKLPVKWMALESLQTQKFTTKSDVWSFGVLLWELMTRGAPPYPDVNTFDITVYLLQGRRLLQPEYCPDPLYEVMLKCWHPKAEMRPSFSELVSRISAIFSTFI
T3 sequence (Q96GD4 whole entry): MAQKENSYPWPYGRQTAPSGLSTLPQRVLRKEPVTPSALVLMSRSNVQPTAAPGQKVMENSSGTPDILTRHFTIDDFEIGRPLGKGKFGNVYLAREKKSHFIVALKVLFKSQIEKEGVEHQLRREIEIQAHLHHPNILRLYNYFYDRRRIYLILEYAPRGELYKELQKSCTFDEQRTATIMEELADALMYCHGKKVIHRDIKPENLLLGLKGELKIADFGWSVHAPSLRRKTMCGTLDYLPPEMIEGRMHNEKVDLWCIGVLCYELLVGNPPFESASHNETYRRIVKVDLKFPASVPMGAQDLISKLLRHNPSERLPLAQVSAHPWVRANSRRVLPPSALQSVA

| SMILES | inhibition at 1 µM (Aurora A kinase) | inhibition at 0.5 µM (c-Met kinase) | inhibition at 1 µM (Aurora B kinase) | IC50 (Aurora B kinase) | IC50 (Aurora A kinase) |
| --- | --- | --- | --- | --- | --- |
| CCOC(=O)CCc1c(/C=C2\C(=O)Nc3ccc(NCc4ccc(F)cc4)cc32)[nH]c2c1C(=O)CCC2 [DCB-70176, (Z)-ethyl 3-(2-((5-(4-fluorobenzylamino)-2-oxoindolin-3-ylidene)methyl)-4-oxo-4,5,6,7-tetrahydro-1H-indol-3-yl)propanoate] | 52.3% | 10.1% | 15.2% | – | – |
| CCOC(=O)CCc1c(/C=C2\C(=O)Nc3ccc(/N=C/c4ccncc4)cc32)[nH]c2c1C(=O)CCC2 [DCB-70177, ethyl 3-(4-oxo-2-((Z)-(2-oxo-5-((E)-pyridin-4-ylmethyleneamino)indolin-3-ylidene)methyl)-4,5,6,7-tetrahydro-1H-indol-3-yl)propanoate] | 81.6% | 18.8% | 22.5% | – | – |
| CCOC(=O)CCc1c(/C=C2\C(=O)Nc3ccc(/N=C/c4ccc(F)c(C(F)(F)F)c4)cc32)[nH]c2c1C(=O)CCC2 [DCB-70178, ethyl 3-(2-((Z)-(5-((E)-4-fluoro-3-(trifluoromethyl)benzylideneamino)-2-oxoindolin-3-ylidene)methyl)-4-oxo-4,5,6,7-tetrahydro-1H-indol-3-yl)propanoate] | 31.2% | 7.8% | 1.9% | – | – |
| CCOC(=O)CCc1c(/C=C2\C(=O)Nc3ccc(NC(C)c4ccccc4)cc32)[nH]c2c1C(=O)CCC2 (centres unmarked) [DCB-70179, (Z)-ethyl 3-(4-oxo-2-((2-oxo-5-(1-phenylethylamino)indolin-3-ylidene)methyl)-4,5,6,7-tetrahydro-1H-indol-3-yl)propanoate] | 59.9% | 17.9% | 40.1% | – | – |
| CCOC(=O)CCc1c(/C=C2\C(=O)Nc3ccc(/N=C/c4ccsc4)cc32)[nH]c2c1C(=O)CCC2 [DCB-70180, ethyl 3-(4-oxo-2-((Z)-(2-oxo-5-((E)-thiophen-3-ylmethyleneamino)indolin-3-ylidene)methyl)-4,5,6,7-tetrahydro-1H-indol-3-yl)propanoate] | 71.5% | 5.1% | 47.4% | 866 nM | – |
| CCOC(=O)CCc1c(/C=C2\C(=O)Nc3ccc(NC(=O)Nc4ccc(F)cc4F)cc32)[nH]c2c1C(=O)CCC2 [DCB-70183, (Z)-ethyl 3-(2-((5-(3-(2,4-difluorophenyl)ureido)-2-oxoindolin-3-ylidene)methyl)-4-oxo-4,5,6,7-tetrahydro-1H-indol-3-yl)propanoate] | 13.2% | 1.5% | 13.9% | – | – |
| CCOC(=O)CCc1c(/C=C2\C(=O)Nc3ccc(NC(=O)Nc4ccc(Cl)cc4Cl)cc32)[nH]c2c1C(=O)CCC2 [DCB-70184, (Z)-ethyl 3-(2-((5-(3-(2,4-dichlorophenyl)ureido)-2-oxoindolin-3-ylidene)methyl)-4-oxo-4,5,6,7-tetrahydro-1H-indol-3-yl)propanoate] | 6.6% | 8.7% | 6.8% | – | – |
| Nc1ccccc1NC(=O)CCc1c(/C=C2\C(=O)Nc3ccc(NS(=O)(=O)c4ccccc4)cc32)[nH]c2c1C(=O)CCC2 [DCB-70186, (Z)-N-(2-aminophenyl)-3-(4-oxo-2-((2-oxo-5-(phenylsulfonamido)indolin-3-ylidene)methyl)-4,5,6,7-tetrahydro-1H-indol-3-yl)propanamide] | 66.1% | 9.6% | 47.4% | – | – |
| CC(=O)c1c(C)[nH]c(/C=C2\C(=O)Nc3ccc(F)cc32)c1CCC(=O)O [DCB-70187, (Z)-3-(4-acetyl-2-((5-fluoro-2-oxoindolin-3-ylidene)methyl)-5-methyl-1H-pyrrol-3-yl)propanoic acid] | 62.8% | 8.8% | 17.5% | – | – |
| CC(=O)c1c(C)[nH]c(/C=C2\C(=O)Nc3ccc(S(=O)(=O)N4CCc5ccccc54)cc32)c1CCC(=O)O [DCB-70188, (Z)-3-(4-acetyl-2-((5-(indolin-1-ylsulfonyl)-2-oxoindolin-3-ylidene)methyl)-5-methyl-1H-pyrrol-3-yl)propanoic acid] | 95.5% | 51.1% | 53.2% | 759 nM | 31.7 nM |
| CCOC(=O)CCc1c(/C=C2\C(=O)Nc3ccc(NS(=O)(=O)c4cc(F)cc(F)c4)cc32)[nH]c2c1C(=O)CCC2 [DCB-70189, (Z)-ethyl 3-(2-((5-(3,5-difluorophenylsulfonamido)-2-oxoindolin-3-ylidene)methyl)-4-oxo-4,5,6,7-tetrahydro-1H-indol-3-yl)propanoate] | 91.4% | 14% | 84% | 177 nM | 77.9 nM |
| O=C(O)CCc1c(/C=C2\C(=O)Nc3ccc(NS(=O)(=O)c4cc(F)cc(F)c4)cc32)[nH]c2c1C(=O)CCC2 [DCB-70190, (Z)-3-(2-((5-(3,5-difluorophenylsulfonamido)-2-oxoindolin-3-ylidene)methyl)-4-oxo-4,5,6,7-tetrahydro-1H-indol-3-yl)propanoic acid] | 97% | 10% | 80% | 246 nM | 31.5 nM |
| CCOC(=O)CCc1c(/C=C2\C(=O)Nc3ccc(NS(=O)(=O)c4ccc5ccccc5c4)cc32)[nH]c2c1C(=O)CCC2 [DCB-70191, (Z)-ethyl 3-(2-((5-(naphthalene-2-sulfonamido)-2-oxoindolin-3-ylidene)methyl)-4-oxo-4,5,6,7-tetrahydro-1H-indol-3-yl)propanoate] | 20.4% | 19% | 21.2% | – | – |
| O=C(O)CCc1c(/C=C2\C(=O)Nc3ccc(NS(=O)(=O)c4ccc5ccccc5c4)cc32)[nH]c2c1C(=O)CCC2 [DCB-70192, (Z)-3-(2-((5-(naphthalene-2-sulfonamido)-2-oxoindolin-3-ylidene)methyl)-4-oxo-4,5,6,7-tetrahydro-1H-indol-3-yl)propanoic acid] | 40.6% | 9.9% | 21% | – | – |
| CCOC(=O)CCc1c(/C=C2\C(=O)Nc3ccc(NS(=O)(=O)c4cc(Cl)cc(Cl)c4)cc32)[nH]c2c1C(=O)CCC2 [DCB-70193, (Z)-ethyl 3-(2-((5-(3,5-dichlorophenylsulfonamido)-2-oxoindolin-3-ylidene)methyl)-4-oxo-4,5,6,7-tetrahydro-1H-indol-3-yl)propanoate] | 74.3% | 11.2% | 36.7% | – | – |
| O=C(O)CCc1c(/C=C2\C(=O)Nc3ccc(NS(=O)(=O)c4cc(Cl)cc(Cl)c4)cc32)[nH]c2c1C(=O)CCC2 [DCB-70194, (Z)-3-(2-((5-(3,5-dichlorophenylsulfonamido)-2-oxoindolin-3-ylidene)methyl)-4-oxo-4,5,6,7-tetrahydro-1H-indol-3-yl)propanoic acid] | 85.3% | 12.9% | 41.7% | – | 151 nM |
| CCOC(=O)CCc1c(/C=C2\C(=O)Nc3ccc(NS(=O)(=O)c4cccc(OC)c4)cc32)[nH]c2c1C(=O)CCC2 [DCB-70195, (Z)-ethyl 3-(2-((5-(3-methoxyphenylsulfonamido)-2-oxoindolin-3-ylidene)methyl)-4-oxo-4,5,6,7-tetrahydro-1H-indol-3-yl)propanoate] | 73.1% | 15.3% | 47.5% | – | – |
